Measured values: ChEMBL document CHEMBL1156882, “5-OMe-UDP is a potent and selective P2Y(6)-receptor agonist” (J Med Chem, 2010)
pEC50: −log10 of the molar value. One block for each molecule: values may come before it.

Key:
Type in all cases: functional, cell-based
P2Y purinoceptor 6 [1] = biological target: T1, P2Y purinoceptor 6 (Homo sapiens, UniProt Q15077); assay: Agonist activity at human P2Y6 receptor expressed in human 1321N1 cells assessed as calcium elevation at 10 uM by fura2/AM assay
T1 sequence (Q15077 whole entry): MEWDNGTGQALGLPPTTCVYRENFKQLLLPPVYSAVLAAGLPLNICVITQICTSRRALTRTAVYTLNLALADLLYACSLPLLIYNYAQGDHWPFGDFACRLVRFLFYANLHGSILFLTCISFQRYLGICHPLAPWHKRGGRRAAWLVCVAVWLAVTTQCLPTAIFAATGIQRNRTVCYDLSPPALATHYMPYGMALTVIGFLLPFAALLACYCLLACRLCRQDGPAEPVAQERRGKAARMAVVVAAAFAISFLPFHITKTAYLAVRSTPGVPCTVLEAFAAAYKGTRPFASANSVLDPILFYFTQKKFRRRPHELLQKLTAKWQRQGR

P2Y purinoceptor 2 [2] = biological target: T2, P2Y purinoceptor 2 (Homo sapiens, UniProt P41231); assay: Agonist activity at human P2Y2 receptor expressed in human 1321N1 cells assessed as calcium elevation by fura2/AM assay; conditions: for pEC50: read-out: EC50; for EC50: 1321-n1
T2 sequence (P41231 whole entry): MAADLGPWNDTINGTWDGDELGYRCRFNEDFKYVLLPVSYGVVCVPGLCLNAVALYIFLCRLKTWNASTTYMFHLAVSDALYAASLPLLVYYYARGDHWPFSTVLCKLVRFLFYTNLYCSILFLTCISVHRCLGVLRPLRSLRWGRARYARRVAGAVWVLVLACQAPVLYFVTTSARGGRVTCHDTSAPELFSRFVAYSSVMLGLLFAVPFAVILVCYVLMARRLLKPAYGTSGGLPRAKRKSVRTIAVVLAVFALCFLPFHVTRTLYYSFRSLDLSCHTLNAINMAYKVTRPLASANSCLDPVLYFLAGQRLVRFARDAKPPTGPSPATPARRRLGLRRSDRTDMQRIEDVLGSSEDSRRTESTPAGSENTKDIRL

P2Y purinoceptor 4 [3] = biological target: T3, P2Y purinoceptor 4 (Homo sapiens, UniProt P51582); assay: Agonist activity at human P2Y4 receptor expressed in human 1321N1 cells assessed as concentration required to 50% maximal response of compound 3 at 10 uM by fura2/AM assay
T3 sequence (P51582 whole entry): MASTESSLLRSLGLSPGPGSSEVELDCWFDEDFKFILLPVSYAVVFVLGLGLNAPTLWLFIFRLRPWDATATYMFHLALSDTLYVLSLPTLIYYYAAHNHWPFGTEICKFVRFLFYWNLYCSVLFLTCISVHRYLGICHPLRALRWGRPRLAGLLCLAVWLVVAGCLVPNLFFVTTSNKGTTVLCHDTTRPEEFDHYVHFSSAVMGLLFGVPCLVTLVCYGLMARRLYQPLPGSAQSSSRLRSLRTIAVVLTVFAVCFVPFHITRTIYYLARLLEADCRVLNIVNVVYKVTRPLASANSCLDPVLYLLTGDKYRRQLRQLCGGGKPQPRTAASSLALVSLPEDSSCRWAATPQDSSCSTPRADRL

P2Y purinoceptor 4 [4] = biological target: T3, P2Y purinoceptor 4; assay: Agonist activity at human P2Y4 receptor expressed in human 1321N1 cells assessed as calcium elevation by fura2/AM assay; conditions: for pEC50: read-out: EC50; for EC50: 1321-n1
P2Y purinoceptor 6 [5] = biological target: T1, P2Y purinoceptor 6; assay: Agonist activity at human P2Y6 receptor expressed in human 1321N1 cells assessed as calcium elevation by fura2/AM assay; conditions: for pEC50: read-out: EC50; for EC50: 1321-n1
P2Y purinoceptor 6 [6] = biological target: T1, P2Y purinoceptor 6; assay: Agonist activity at human P2Y6 receptor expressed in human 1321N1 cells assessed as concentration required to 50% maximal response of compound 3 at 10 uM by fura2/AM assay
P2Y purinoceptor 2 [7] = biological target: T2, P2Y purinoceptor 2; assay: Agonist activity at human P2Y2 receptor expressed in human 1321N1 cells assessed as concentration required to 50% maximal response of compound 3 at 10 uM by fura2/AM assay
P2Y purinoceptor 4 [8] = biological target: T3, P2Y purinoceptor 4; assay: Agonist activity at human P2Y4 receptor expressed in human 1321N1 cells assessed as calcium elevation at 10 uM by fura2/AM assay
P2Y purinoceptor 2 [9] = biological target: T2, P2Y purinoceptor 2; assay: Agonist activity at human P2Y2 receptor expressed in human 1321N1 cells assessed as calcium elevation at 10 uM by fura2/AM assay
P2Y purinoceptor 2 [10] = biological target: P2Y purinoceptor 2 (Mus musculus, UniProt P35383); assay: Agonist activity at mouse P2Y2 receptor expressed in human 1321N1 cells assessed as calcium elevation by fura2/AM assay
Sequence of P2Y purinoceptor 2 (Mus musculus, UniProt P35383) (P35383 whole entry): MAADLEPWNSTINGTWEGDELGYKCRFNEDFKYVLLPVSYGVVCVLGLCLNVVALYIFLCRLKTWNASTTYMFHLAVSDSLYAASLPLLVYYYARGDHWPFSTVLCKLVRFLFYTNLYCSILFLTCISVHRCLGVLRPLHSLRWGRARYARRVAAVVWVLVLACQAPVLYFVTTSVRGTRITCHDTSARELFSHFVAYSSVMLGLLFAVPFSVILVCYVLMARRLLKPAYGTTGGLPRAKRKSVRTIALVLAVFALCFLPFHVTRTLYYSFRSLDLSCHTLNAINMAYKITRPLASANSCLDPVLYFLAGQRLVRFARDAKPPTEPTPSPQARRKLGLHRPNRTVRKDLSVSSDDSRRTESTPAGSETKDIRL

- EC50 (P2Y purinoceptor 6 [1]): Active
- pEC50 (P2Y purinoceptor 2 [2]): 5.22
- pEC50 (P2Y purinoceptor 4 [3]): 6.22
SMILES: O=c1[nH]c(=O)n([C@@H]2O[C@H](COP(=O)(O)OP(=O)(O)OP(=O)(O)O)[C@@H](O)[C@H]2O)cc1F

- pEC50 (P2Y purinoceptor 2 [2]): 5.69
- pEC50 (P2Y purinoceptor 4 [4]): 5.00
- pEC50 (P2Y purinoceptor 6 [5]): 6.10
SMILES: O=c1[nH]c(=O)n([C@@H]2O[C@H](COP(=O)(O)OP(=O)(O)OP(=O)(O)O)[C@@H](O)[C@H]2O)cc1Br

- pEC50 (P2Y purinoceptor 6 [5]): 7.89
SMILES: O=c1[nH]c(=O)n([C@@H]2O[C@H](COP(=O)(O)OP(=O)(O)O)[C@@H](O)[C@H]2O)cc1I

- EC50 (P2Y purinoceptor 2 [2]): Not Active
- pEC50 (P2Y purinoceptor 4 [4]): ≤ 4.70
- pEC50 (P2Y purinoceptor 6 [5]): 7.10
SMILES: COc1cn([C@@H]2O[C@H](COP(=O)(O)OP(=O)(O)O)[C@@H](O)[C@H]2O)c(=O)[nH]c1=O

- pEC50 (P2Y purinoceptor 2 [2]): 5.52
- EC50 (P2Y purinoceptor 4 [4]): Not Active
- EC50 (P2Y purinoceptor 6 [5]): Not Active
SMILES: COc1cc(=O)[nH]c(=O)n1[C@@H]1O[C@H](COP(=O)(O)OP(=O)(O)OP(=O)(O)O)[C@@H](O)[C@H]1O

- pEC50 (P2Y purinoceptor 6 [5]): 6.64
SMILES: O=c1ccn([C@]23C[C@H]2[C@H](COP(=O)(O)OP(=O)(O)O)[C@@H](O)[C@H]3O)c(=O)[nH]1

- EC50 (P2Y purinoceptor 2 [9]): Active
- EC50 (P2Y purinoceptor 4 [4]): Not Active
- EC50 (P2Y purinoceptor 6 [5]): Not Active
SMILES: CSc1cc(=O)[nH]c(=O)n1[C@@H]1O[C@H](COP(=O)(O)OP(=O)(O)OP(=O)(O)O)[C@@H](O)[C@H]1O

- pEC50 (P2Y purinoceptor 2 [10]): 4.00
SMILES: CCc1cn([C@@H]2O[C@H](COP(=O)(O)OP(=O)(O)OP(=O)(O)O)[C@@H](O)[C@H]2O)c(=O)[nH]c1=O

- pEC50 (P2Y purinoceptor 6 [5]): 6.85
SMILES: O=c1ccn([C@@H]2O[C@H](COP(=O)(O)OP(=O)(O)O)[C@@H](O)[C@H]2O)c(=O)[nH]1 [URIDINE_DIPHOSPHATE]

The remaining lines, values behind:

SMILES: O=c1ccn([C@@H]2O[C@H](COP(=O)(O)OP(=O)(O)OP(=O)(O)OP(=O)(O)OC[C@H]3O[C@@H](n4ccc(=O)[nH]c4=O)[C@H](O)[C@@H]3O)C3OC(Cc4ccccc4)OC32)c(=O)[nH]1 (stereo partly drawn)
- pEC50 (P2Y purinoceptor 6 [5]): 6.85

SMILES: O=c1[nH]c(=O)n([C@@H]2O[C@H](COP(=O)(O)OP(=O)(O)O)[C@@H](O)[C@H]2O)cc1F
- pEC50 (P2Y purinoceptor 6 [6]): 5.00
- pEC50 (P2Y purinoceptor 4 [3]): 5.46
- pEC50 (P2Y purinoceptor 2 [7]): 5.70

SMILES: O=c1cc(Sc2ccccc2)n([C@@H]2O[C@H](COP(=O)(O)OP(=O)(O)OP(=O)(O)O)[C@@H](O)[C@H]2O)c(=O)[nH]1
- EC50 (P2Y purinoceptor 2 [2]): Not Active
- EC50 (P2Y purinoceptor 4 [4]): Not Active
- EC50 (P2Y purinoceptor 6 [5]): Not Active

SMILES: COc1cn([C@@H]2O[C@H](COP(=O)(O)OP(=O)(O)OP(=O)(O)O)[C@@H](O)[C@H]2O)c(=O)[nH]c1=O
- pEC50 (P2Y purinoceptor 2 [2]): 5.70
- pEC50 (P2Y purinoceptor 6 [5]): 6.05
- EC50 (P2Y purinoceptor 4 [8]): Active

SMILES: O=c1[nH]c(=O)n([C@@H]2O[C@H](COP(=O)(O)OP(=O)(O)S)[C@@H](O)[C@H]2O)cc1Br (stereo partly drawn)
- pEC50 (P2Y purinoceptor 6 [5]): 7.33

SMILES: Nc1ccn([C@H]2C[C@H](O)[C@@H](COP(=O)(O)OP(=O)(O)OP(=O)(O)OP(=O)(O)OC[C@H]3O[C@@H](n4ccc(=O)[nH]c4=O)[C@H](O)[C@@H]3O)O2)c(=O)n1 [DENUFOSOL]
- pEC50 (P2Y purinoceptor 2 [2]): 6.66

SMILES: O=c1ccn([C@@H]2O[C@H](COP(=O)(O)OP(=O)(O)OP(=O)(O)O)[C@@H](O)[C@H]2O)c(=O)[nH]1 [URIDINE TRIPHOSPHATE]
- pEC50 (P2Y purinoceptor 2 [2]): 7.00
- pEC50 (P2Y purinoceptor 4 [4]): 6.30
